The record followed here is a melting point compilation (Tetko et al.; mined from patent text by program, amines drawn as free bases though some values may be those of a salt).

SMILES strings stand for the structures.

`CC(=O)Nc1nc(C)c(S(=O)(=O)NC(CO)CO)s1` registered a melting point of 217 °C.
The value for `COc1cc2c(c(OC)c1OC)C(CN1CCC(c3noc4cc(F)ccc34)CC1)=C2` was 141 to 143 °C; that for `CCOC(=O)C1=C(C)N(C(C)=O)C(c2csc(C)n2)=NC1c1cccc(OC)c1` (configuration not stated) was 114 to 116 °C; that for `CN1c2ccccc2N(C(=O)c2ccc(-c3ccccc3)cc2)Cc2cccnc21` was 220 to 223 °C.
In the case of `CN1CCN(C(=O)CCOC2c3ccccc3C(=O)N2c2ccc3ccc(Cl)nc3n2)CC1` (configuration not stated), the melting point came to 150 °C.
For `O=C(C1CCCCC1)C1CCN(C(=O)c2cc(O)c(O)cc2[N+](=O)[O-])CC1` the value was 240 °C.
The value for `OCc1cnoc1-c1ccc(F)c(F)c1` was 72 to 73 °C; that for `CCc1cc2c(ccc(=O)n2Cc2ccc([N+](=O)[O-])cc2)c(CC)n1` was 153 to 156 °C; that for `COc1cccc2c1nc(C)n2C` was 122 to 124 °C.
For `COC(=O)C(=O)c1ccc(OCCOc2ccc3ccccc3c2)c(Cl)c1` the value was 133 to 134 °C.
As for `COc1ccc(S)c(-n2c(=O)[nH]cc(C(=O)O)c2=O)c1`, the melting point lay within 277 to 278 °C.
Regarding `Cn1cc(C2=C(c3c[nH]c4cc([N+](=O)[O-])ccc34)C(=O)NC2=O)c2ccccc21`, the melting point was more than 260 °C.
The value for `CCCCNc1c(C(=O)OCC)c(C)nc(NCC)c1[N+](=O)[O-]` was 53 to 55 °C.
For `CNc1nc2c(c(N3CCN(C=O)CC3)n1)SCCC2` the value was 149 to 151 °C; for `Cc1cc(Br)ccc1-n1c(C(F)(F)F)nn(C)c1=O`, 80 to 83 °C; for `N#CCCSc1nnsc1-c1ccccc1`, 63.5 to 64.5 °C.
`O=[N+]([O-])c1cccc2c1sc1c(Nc3cccc(Br)c3)ncnc12` had a melting point of 247 to 248 °C.
For `O=C(O)c1cccc(-c2ccc3c(c2)N(c2cc(Cl)cc(Cl)c2)CC3)c1` the value was 210 to 211 °C; for `O=C(CBr)OCN1C(=O)NC(c2ccccc2)(c2ccccc2)C1=O`, 179 to 183 °C; for `COc1cc(F)ccc1C(F)C1CCCCn2c1nc(-c1ccncn1)cc2=O` (racemic), 228 to 230 °C.
The compound `CCCCCCCCCOc1cc([N+](=O)[O-])ccc1N` registered a melting point of 74 to 75 °C.
Regarding `CN1CCN(c2cc3c(F)cccc3c(=O)[nH]2)CC1`, the melting point lay in the range of 238 to 239 °C.
The value for `COc1cc(Nc2nccc(-c3cccc(OCCO)c3)n2)cc(OC)c1OC` was 70 °C; that for `Cc1cc(OC(F)(F)C(F)C(F)(F)F)ccc1NC(=O)c1cccc(I)c1` (configuration not stated) was 188 °C; that for `N/C(=C1/Sc2ccccc2C1=O)c1ccccc1[N+](=O)[O-]` was 185 to 186 °C.
The value for `CCC(C)(C)c1cc(-c2cccc(CC3SC(N4CCOCC4)=NC3=O)n2)ccc1O` (configuration not stated) was 240 to 242 °C; that for `COc1cc(OC)cc(C(O)C(=O)c2ccccc2)c1` (configuration not stated) was 98 to 104 °C.
The value for `CCN1c2ncc(/C=C/c3ccncc3)cc2C(=O)N(C)c2cccnc21` was 150 °C; that for `O=[N+]([O-])c1cc([N+](=O)[O-])c(Nc2cccc3c2OC(F)(F)O3)c(C(F)(F)F)c1` was 144 to 146 °C.
`N#Cc1[nH]c2ccc(Br)cc2c1-c1ccccc1` registered a melting point of 227 to 230 °C.
`CCOC(=O)C(=O)CC(=O)c1cn(Cc2ccccc2)c2ccccc2c1=O`: the melting point was in the range of 141 to 142 °C.
The value for `CC(C)(C)OC(=O)N1CCN(C(c2ccccc2)c2ccccc2)CC1` was 129 to 131 °C.
`Cn1ncnc1COc1nn2c(-c3ccccc3F)nncc2c1-c1cccnc1` registered a melting point of 181 to 183 °C.
For `NC1CCN(CC23CC(c4ccccc42)c2ccccc23)CC1` the value was 116 to 119 °C; for `Cc1cc(Cl)cc(C(=O)NC(C)(C#N)C2CC2)c1NC(=O)c1cc(C(F)(F)F)nn1-c1ncccc1Cl` (configuration not stated), 226 to 228 °C.
For `Fc1cc(F)c2c(c1)C[C@@H](n1ccn(CCc3ccccc3)c1=S)CC2` the value was 131 to 133 °C; for `CCOC(=O)Cc1ccc(OCc2ccc3c(c2)OCO3)cc1`, 49 to 52 °C.
`Cc1ccc2c(cc(CCCC(=O)O)n2S(=O)(=O)c2ccccc2)n1` returned a melting point of 172 to 180 °C.
The value for `CN(C)Cc1cc2ccc(-c3nnc(CSCCOc4ccccc4)o3)cc2n1S(C)(=O)=O` was 127 to 130 °C; that for `CCOc1cc(C(CC(=O)OC)N2C(=O)c3ccccc3C2=O)ccc1OC` (configuration not stated) was 86 to 87 °C.
The value for `CCCc1nnc2c(=O)n(C)c3ccc(C(F)(F)F)cc3n12` was 257 to 258 °C; that for `COc1cc(C(=O)c2c[nH]c(-c3ccc(Cl)cc3)n2)cc(OC)c1OC` was 193 to 195 °C.
For `COc1cc(N)c(Cl)cc1C(=O)NCC1CCN(CCCCC(=O)c2ccc(O)cc2)CC1` the value was 154 to 156 °C.
`Oc1ccc(-c2ncc3ncc(Cl)cc3n2)cc1` registered a melting point of 231 to 232 °C.
In turn, `C[C@@H]1CN(C(=O)OC(C)(C)C)C[C@H]2Cc3cc(F)c(C=O)nc3N21` displayed a melting point of 139 to 140 °C.
In the case of `N#Cc1nn(-c2c(Cl)cc(C(F)(F)F)cc2Cl)cc1C1CC(=O)C1`, the melting point was 127 °C.
The value for `Clc1ccc(Cn2cnc3c(-c4ccco4)ncnc32)cc1` was 156 to 159 °C; that for `Fc1cccc(F)c1C1=NC(C2(OC(F)(F)F)C=CC(c3ccccc3)=CC2)CS1` (configuration not stated) was 85 to 86 °C.
The value for `COc1cc2ncc3c(N)nc(C)cc3c2cc1OC` was 244 to 248 °C; that for `CCCc1c(C(=O)C(C)C)c2ccc(C(=O)NO)cc2n1Cc1ccccc1Cl` was 185 to 186 °C; that for `CC(=O)OCCCCCCSCC(=O)c1ccc2c(c1)CC(=O)N2` was 86 to 87 °C.
For `CC(C)(C)OCC(NC(=O)c1ccc2c(Cl)cnc(NC(=N)N)c2c1)C(=O)OC(C)(C)C` (racemic) the value was 215 to 219 °C; for `CCCCn1cc(CCN(C)C)c2c(OCc3ccccc3)cc(F)cc21`, 86 to 89 °C; for `O=C1Nc2cc(-c3ccco3)ccc2C2CCCC12F` (configuration not stated), 203 to 206 °C.
`COc1cc(Nc2nccc(-c3sc(Nc4ccccc4)nc3C)n2)cc(OC)c1`: the melting point lay within 191 to 194 °C.
The value for `COC(=O)CCC(NC(c1ccccc1)c1ccccc1)P(O)O` (configuration not stated) was 162 to 164 °C.
In the case of `ON=Cc1cccc(OCCN2CCC(Cc3ccccc3)CC2)c1`, the melting point fell in the range of 141 to 143 °C.
The value for `CCOCCN(C)c1ccc(-c2ccc3c(c2)C=C(C(=O)Nc2ccc(CN(C)C4CCOCC4)cc2)CCS3(=O)=O)cc1` was 190 to 192 °C; that for `CCCCNc1c(C#N)cnc2cc(F)c(OC)cc12` was 155 to 156 °C.
For `COc1ccc(C(O)(CC#N)c2ccc(OC)cc2)cc1` the value was 102 °C; for `Cc1c(Cl)c(Cl)c(Cl)c(Cl)c1CCl`, 102 to 103 °C.
For `CCCCNCc1ccc2cc(OC)ccc2c1` the value was 55 to 80 °C.
With `O=C(c1ccc(F)cc1)N1CCC[C@H](c2nc(-c3ccc[nH]3)no2)C1`, the melting point was in the range of 130 to 135 °C.
The value for `CC(C)OC(=O)N[C@@H](C(=O)O)c1ccccc1` was 123 to 127 °C; that for `Cc1nnc2n1-c1sc(CCc3ccc(CC(C)C)cc3)cc1C(c1ccccc1Cl)=NC2C` (configuration not stated) was 130 to 132 °C; that for `Nc1ccc(Nc2c(CC3CC4C=CC3C4)cc(C(=O)O)cc2S(N)(=O)=O)cc1` (configuration not stated) was 245 °C.
The value for `OC1C(CF)OC(n2cnc3c(NN4CCCCC4)nc(Cl)nc32)C1O` (configuration not stated) was 199 to 201 °C.
`COc1ccc(-c2ccc(C(=O)O)cc2)cc1-c1cccc([N+](=O)[O-])c1` registered a melting point of 270 to 274 °C.
For `Brc1csc2ncnc(NCc3ccccn3)c12` the value was 127 to 129 °C; for `CCOC(=O)c1ncc2[nH]c3c([N+](=O)[O-])cc([N+](=O)[O-])cc3c2n1`, 295 to 299 °C; for `CC(C)NC(=O)c1cnc(N2CCC(n3c(=O)oc4ccccc43)CC2)c(Cl)c1`, 162 to 168 °C.
The value for `Cc1ccc(C)c(OCCCC(C)(C)C(=O)Nc2cccc(N)c2)c1` was 93 to 94 °C.
For `N#CC(O)CC12CCC(c3ccccc31)c1ccccc12` (configuration not stated) the value was 139 to 141 °C; for `O=S(=O)(c1ccc(Cl)cc1)C(c1ccncc1)C1CCOCC1` (configuration not stated), 208 to 209 °C.
Consider `CCOC(=O)COc1ccc([N+](=O)[O-])cc1C1C(C(=O)OCC)=C(C)NC(C)=C1C(=O)OCC`, for which the melting point worked out at 175 °C.
Consider `CCN(CC)C(=O)c1cc(C(C)(C)C)c(OC(=O)c2cc(C(C)(C)C)c(O)c(C(C)(C)C)c2)c(C(C)(C)C)c1`, for which the melting point fell in the range of 203 to 205 °C.
For `COCCc1nc2c(N)nc3ccc(OCc4ccccc4)cc3c2n1C` the value was 192 to 194 °C; for `O=C(C#CCN1C(=O)c2ccccc2C1=O)Nc1nnc(SCc2ccccc2)s1`, 128 to 131 °C; for `CC(=O)CCc1cccc(C)c1NC(=O)CC1c2ccccc2Oc2ccccc21`, 179 to 180 °C.
For `CCNc1ccc(C2(C)C(=O)c3c(Cl)cc(Cl)cc3N(Cc3ccccc3)C2=O)cc1` (configuration not stated) the value was 148 to 149 °C; for `Cc1cc(-c2cccc(C(F)(F)F)c2)n2ncc(C(=O)c3ccccc3)c2n1`, 153 to 154 °C.
Turning to `c1ccc2sc(C3CCNCC3)cc2c1`, the melting point lay within 82 to 84 °C.
For `COc1ccc(Cn2nc(-c3ccc(S(C)=O)cc3)c(-c3ccc(F)cc3)cc2=O)cc1` (configuration not stated) the value was 81.3 to 81.5 °C.
For `COc1cccc(C(=O)NCCNC(=O)OC(C)(C)C)n1` the value was 104 to 105 °C; for `Cn1c(COc2ccc(CC3SC(=O)NC3=O)cc2)nc2ccc(Oc3ccc(NC(=O)c4cccnc4)cc3)cc21` (configuration not stated), 213 to 215 °C.
The value for `COc1ccc(Cn2c(=O)c(NN)nc3ccc4ccccc4c32)c(OC)c1` was 182 to 183 °C.
As to `COc1ccc2ccc(N3Cc4ccccc4C3OCC(=O)O)nc2n1` (configuration not stated), the melting point stood at 190 °C.
